Test results as given in publication PMC10215804, “Exploring Alternative Pathways to Target Bacterial Type II Topoisomerases Using NBTI Antibacterials: Beyond Halogen-Bonding Interactions” (Antibiotics, 2023).
Read-outs that look alike come from different tables or passages of the source.

Assays:
MRSA (QA-11.2) = assay: MIC, broth microdilution; assay type: cell-based, S. aureus; conditions: Staphylococcus aureus
Experimental: (§1) For the determination of minimum inhibitory concentrations (MIC), the broth microdilution method was used in 96-well plate format, according to the guidelines of the Clinical and Laboratory Standards Institute and the recommendations of the European Committee on Antimicrobial Susceptibility Testing (EUCAST). The dilutions of the bacterial suspension of the specific bacterial strain, corresponding to the 0.5 McFarland turbidity standard, were prepared with […] Mueller–Hinton broth with TES (Thermo Fisher Scientific) to obtain an end inoculum of 10^5 CFU/mL. The compounds were dissolved in DMSO and mixed with the inoculum. […] The MIC was determined as the lowest concentration of antibiotic that prevented visible bacterial growth. Tetracycline was used as a positive control on each test plate.

MRSA (QA-11.7) = assay: MIC, broth microdilution; assay type: cell-based, S. aureus; conditions: Staphylococcus aureus
Experimental: as §1

MRSA(QA-12.1) = assay: MIC, broth microdilution; assay type: cell-based, S. aureus; conditions: Staphylococcus aureus
Experimental: as §1

E. coli (ATCC 25922) = assay: MIC, broth microdilution; assay type: cell-based
Experimental: as §1

E. coli N43 (CGSC# 5583) = assay: MIC, broth microdilution; assay type: cell-based; conditions: Escherichia coli
Experimental: as §1

VRE = assay: MIC, broth microdilution; assay type: cell-based; conditions: Enterococcus
Experimental: as §1

E. faecalis RDK 057 = assay: MIC, broth microdilution; assay type: cell-based
Experimental: as §1

A. baumannii = assay: MIC, broth microdilution; assay type: cell-based
Experimental: as §1

K. pneumoniae = assay: MIC, broth microdilution; assay type: cell-based
Experimental: as §1

S. aureus (ATCC 29213) = assay: MIC, broth microdilution; assay type: cell-based; conditions: Staphylococcus aureus
Experimental: as §1

E. coli D22 = assay: MIC, broth microdilution; assay type: cell-based; conditions: Escherichia coli
Experimental: as §1

P. aeruginosa RDK 184 = assay: MIC, broth microdilution; assay type: cell-based
Experimental: as §1

E. coli DNA gyrase = target: T1, E. coli DNA gyrase (Escherichia coli, UniProt P0AES4); assay: DNA gyrase supercoiling inhibition assay (high-throughput plate assay); assay type: biochemical
T1 construct: purchased Inspiralis (Norwich, UK)
Experimental: (§2) To determine the IC50 values of the compounds for S. aureus and E. coli, a DNA gyrase supercoiling high-throughput plate assay and a topoIV relaxation high-throughput plate assay were performed. Assay kits and black streptavidin-coated 96-well microtiter plates are available from Inspiralis (Norwich, UK). For pre-screening, an inhibitor concentration of 100 μM was used. […] A nonlinear regression-based fit of the inhibition curves was used, with the log [inhibitor] versus slope of the reaction variables (four parameters) and a symmetric equation. […] To determine IC50 values, two independent repetitions were performed and the average was calculated.

[1] = Metabolic activity assessment (cytotoxicity), CellTiter 96 Aqueous One; assay type: cell-based; conditions: human, 72 h treatment, means of three independent measurements ± SD
Experimental: HUVEC (ATCC® CRL-1730™) and HepG2 (ATCC® HB-8065™) cell lines were cultured in Dulbecco’s Modified Eagle Medium (DMEM; Sigma-Aldrich, St. Louis, MO, USA) supplemented with 10% heat-deactivated FBS (Gibco, Grand Island, NE, USA), 2 mM L-glutamine, 100 U/mL penicillin, 100 μg/mL streptomycin (all from Sigma-Aldrich, St. Louis, MO, USA) in a humidified chamber at 37 °C and 5% CO2. The experiments were carried out on passages 4–7 for both cell lines. The tested compounds were dissolved in DMSO and further diluted in culture medium to a desired final concentration. The cells were then seeded into 96-well plates at 5 × 10^4 cells/mL (100 μL/well) or 8 × 10^4 cells/mL (100 μL/well) for HUVEC and HepG2, respectively. The cells were then incubated for 24 h to allow attachment onto the wells. The cells were treated with 1 μM and 50 μM of each compound of interest, or the corresponding vehicle as control. […] Their metabolic activity was assessed after 72 h treatment using a CellTiter 96 Aqueous One Solution Cell Proliferation Assay (Promega, Madison, WI, USA), in accordance with the manufacturer’s instructions. The absorbance was measured at 492 nm on an automated microplate reader, Tecan Spark (Tecan Group Ltd., Männedorf, CH, Switzerland). Data are presented as the percentage of metabolic activity of control cells stimulated with vehicle, or as an IC50 value (mean ± SD) from three independent experiments, each conducted in triplicate (for screening) or duplicate (for IC50 determination). IC50 values were calculated using a non-linear regression model and with Graph Pad Prism 9 software.

S. aureus DNA gyrase = target: T2, S. aureus DNA gyrase (Staphylococcus aureus, UniProt P20831); assay: biochemical; conditions: supercoiling inhibition; mean of two independent measurements ± SD
T2 construct: purchased Inspiralis (Norwich, UK)
Experimental: as §2

S. aureus topoIV = target: T3, S. aureus topoIV (Staphylococcus aureus, UniProt P0C1U9); assay: biochemical; conditions: relaxation inhibition; mean of two independent measurements ± SD
T3 construct: purchased Inspiralis (Norwich, UK)
Experimental: as §2

human topoisomerase IIα = target: T4, human topoisomerase IIα (Homo sapiens, UniProt P11388); assay: human topoisomerase II alpha relaxation high-throughput assay (selectivity); assay type: biochemical; conditions: residual activity at 100 µM compound; mean ± SD, two independent experiments; read-out: Human TopoIIα (% RA at 100 µM)
T4 construct: purchased Inspiralis (Norwich, UK)
Experimental: For selectivity determination, a human topoisomerase II alpha relaxation high-throughput assay was used. The assay kits and black streptavidin-coated 96-well microtiter plates are available from Inspiralis (Norwich, UK). Two independent measurements were performed with an inhibitory concentration of 100 µM. Raw data were calculated as the mean ± SD percentage of the residual enzyme activity.

E. coli ESBL QA-11.3 = assay: MIC, broth microdilution; assay type: cell-based; conditions: Escherichia coli
Experimental: as §1

E. coli topoIV = target: T5, E. coli topoIV (Escherichia coli, UniProt P0AFI2); assay: topoIV relaxation inhibition assay (high-throughput plate assay); assay type: biochemical
T5 construct: purchased Inspiralis (Norwich, UK)
Experimental: as §2

[2] = read-out: MIC E. coli N43 (CGSC# 5583)
[3] = Escherichia coli, ATCC25922, 20 h, read-out: MIC (μM) E. coli (ATCC 25922)
[4] = Escherichia coli, ATCC25922, read-out: MIC E. coli (ATCC 25922)
[5] = 20 h, read-out: MIC (μM) E. coli N43
[6] = Enterococcus faecalis, RDK057, read-out: MIC (μM) E. faecalis DRK 057
[7] = Enterococcus faecalis, RDK057, read-out: MIC E. faecalis RDK 057
[8] = Acinetobacter baumannii, 20 h, read-out: MIC (μM) A. baumannii
[9] = Acinetobacter baumannii, read-out: MIC A. baumannii
[10] = Klebsiella pneumoniae, 20 h, read-out: MIC (μM) K. pneumoniae
[11] = Klebsiella pneumoniae, read-out: MIC K. pneumoniae
[12] = ATCC29213, 20 h, read-out: MIC (μM) S. aureus (ATCC 29213)
[13] = ATCC29213, read-out: MIC S. aureus (ATCC 29213)
[14] = D22, 20 h, read-out: MIC (μM) E. coli D22
[15] = Pseudomonas aeruginosa, RDK184, 20 h, read-out: MIC (μM) P. aeruginosa RDK 184
[16] = Pseudomonas aeruginosa, RDK184, read-out: MIC P. aeruginosa RDK 184
[17] = ESBLQA11.3, 20 h, read-out: MIC (μM) E. coli ESBL QA:11.3
[18] = ESBLQA11.3, read-out: MIC E. coli ESBL QA-11.3

T1 sequence (P0AES4 whole entry): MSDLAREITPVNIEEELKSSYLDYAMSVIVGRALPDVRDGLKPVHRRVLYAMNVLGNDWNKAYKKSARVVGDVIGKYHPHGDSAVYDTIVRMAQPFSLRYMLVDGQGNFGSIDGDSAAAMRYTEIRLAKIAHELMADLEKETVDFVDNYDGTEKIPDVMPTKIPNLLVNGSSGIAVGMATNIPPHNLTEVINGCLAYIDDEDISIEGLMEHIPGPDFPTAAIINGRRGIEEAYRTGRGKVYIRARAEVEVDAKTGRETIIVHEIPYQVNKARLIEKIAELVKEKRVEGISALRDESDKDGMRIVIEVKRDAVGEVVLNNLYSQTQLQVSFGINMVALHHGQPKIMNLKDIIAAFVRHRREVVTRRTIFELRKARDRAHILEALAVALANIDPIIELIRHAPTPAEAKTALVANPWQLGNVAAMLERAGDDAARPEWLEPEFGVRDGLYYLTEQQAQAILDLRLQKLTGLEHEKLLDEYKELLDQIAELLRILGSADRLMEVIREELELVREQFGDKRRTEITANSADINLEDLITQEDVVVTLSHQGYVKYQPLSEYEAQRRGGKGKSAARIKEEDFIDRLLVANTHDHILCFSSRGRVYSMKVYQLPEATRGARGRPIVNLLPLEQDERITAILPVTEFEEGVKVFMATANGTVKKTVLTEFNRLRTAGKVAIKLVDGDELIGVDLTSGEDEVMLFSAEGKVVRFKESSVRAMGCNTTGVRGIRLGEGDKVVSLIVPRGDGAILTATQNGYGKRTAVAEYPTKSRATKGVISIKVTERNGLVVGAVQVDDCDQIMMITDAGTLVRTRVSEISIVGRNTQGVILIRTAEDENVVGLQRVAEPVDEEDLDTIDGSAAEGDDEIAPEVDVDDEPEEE
T2 sequence (P20831 whole entry): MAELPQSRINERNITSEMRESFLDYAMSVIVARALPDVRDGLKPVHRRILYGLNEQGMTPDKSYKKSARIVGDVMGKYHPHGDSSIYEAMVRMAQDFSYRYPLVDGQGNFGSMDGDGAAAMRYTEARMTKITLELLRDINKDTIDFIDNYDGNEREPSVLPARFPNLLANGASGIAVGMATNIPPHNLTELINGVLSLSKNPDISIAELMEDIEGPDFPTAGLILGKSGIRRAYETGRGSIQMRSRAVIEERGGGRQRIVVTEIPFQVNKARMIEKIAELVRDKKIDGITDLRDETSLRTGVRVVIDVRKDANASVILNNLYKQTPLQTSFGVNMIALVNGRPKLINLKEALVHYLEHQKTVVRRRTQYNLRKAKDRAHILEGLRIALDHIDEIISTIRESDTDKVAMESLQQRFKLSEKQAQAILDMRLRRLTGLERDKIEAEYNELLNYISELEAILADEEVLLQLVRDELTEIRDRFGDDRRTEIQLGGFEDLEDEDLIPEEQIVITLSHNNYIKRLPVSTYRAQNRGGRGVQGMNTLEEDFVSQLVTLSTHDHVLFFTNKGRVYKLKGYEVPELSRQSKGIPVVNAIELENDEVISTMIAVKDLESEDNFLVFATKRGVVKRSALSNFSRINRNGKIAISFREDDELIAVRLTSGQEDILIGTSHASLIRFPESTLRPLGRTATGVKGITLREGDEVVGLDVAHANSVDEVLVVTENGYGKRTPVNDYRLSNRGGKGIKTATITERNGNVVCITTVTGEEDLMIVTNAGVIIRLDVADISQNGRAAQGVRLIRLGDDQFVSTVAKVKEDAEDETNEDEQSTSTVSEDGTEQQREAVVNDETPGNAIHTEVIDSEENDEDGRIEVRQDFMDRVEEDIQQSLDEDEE
T2 sequence (P0A0K8 whole entry partner): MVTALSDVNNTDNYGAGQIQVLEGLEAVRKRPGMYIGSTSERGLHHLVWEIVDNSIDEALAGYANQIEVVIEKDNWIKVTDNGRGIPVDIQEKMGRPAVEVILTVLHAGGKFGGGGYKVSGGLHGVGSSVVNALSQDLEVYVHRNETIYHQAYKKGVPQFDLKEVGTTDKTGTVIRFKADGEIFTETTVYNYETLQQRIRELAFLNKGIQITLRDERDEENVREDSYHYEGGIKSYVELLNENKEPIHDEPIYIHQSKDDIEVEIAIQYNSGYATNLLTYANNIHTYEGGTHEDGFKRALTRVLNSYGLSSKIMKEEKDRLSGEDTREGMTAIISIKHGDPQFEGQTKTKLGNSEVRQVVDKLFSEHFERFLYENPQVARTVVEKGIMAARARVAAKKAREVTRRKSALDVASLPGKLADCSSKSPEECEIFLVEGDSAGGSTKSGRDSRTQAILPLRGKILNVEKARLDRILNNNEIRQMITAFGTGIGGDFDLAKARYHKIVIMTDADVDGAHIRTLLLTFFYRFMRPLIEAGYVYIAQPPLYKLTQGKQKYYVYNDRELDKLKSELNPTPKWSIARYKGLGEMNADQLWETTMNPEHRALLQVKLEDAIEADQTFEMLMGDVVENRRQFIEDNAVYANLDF
T5 sequence (P20083 whole entry): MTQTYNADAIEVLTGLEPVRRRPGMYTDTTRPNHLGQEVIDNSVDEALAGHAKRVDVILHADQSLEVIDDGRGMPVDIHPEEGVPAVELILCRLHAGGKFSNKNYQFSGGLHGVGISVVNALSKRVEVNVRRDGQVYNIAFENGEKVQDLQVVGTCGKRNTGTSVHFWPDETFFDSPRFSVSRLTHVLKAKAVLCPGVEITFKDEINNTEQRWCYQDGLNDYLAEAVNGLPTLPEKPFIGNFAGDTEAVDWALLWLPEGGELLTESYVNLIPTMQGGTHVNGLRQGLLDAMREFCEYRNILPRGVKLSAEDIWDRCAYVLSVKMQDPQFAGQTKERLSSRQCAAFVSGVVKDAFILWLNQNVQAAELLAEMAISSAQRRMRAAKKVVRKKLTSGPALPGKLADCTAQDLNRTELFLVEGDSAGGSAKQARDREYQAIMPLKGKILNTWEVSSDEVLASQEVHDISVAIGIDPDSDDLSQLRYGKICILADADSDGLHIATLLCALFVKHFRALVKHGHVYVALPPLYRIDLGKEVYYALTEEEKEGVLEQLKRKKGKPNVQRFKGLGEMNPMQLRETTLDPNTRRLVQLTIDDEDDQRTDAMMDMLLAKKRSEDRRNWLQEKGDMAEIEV
T5 sequence (P0AFI2 whole entry): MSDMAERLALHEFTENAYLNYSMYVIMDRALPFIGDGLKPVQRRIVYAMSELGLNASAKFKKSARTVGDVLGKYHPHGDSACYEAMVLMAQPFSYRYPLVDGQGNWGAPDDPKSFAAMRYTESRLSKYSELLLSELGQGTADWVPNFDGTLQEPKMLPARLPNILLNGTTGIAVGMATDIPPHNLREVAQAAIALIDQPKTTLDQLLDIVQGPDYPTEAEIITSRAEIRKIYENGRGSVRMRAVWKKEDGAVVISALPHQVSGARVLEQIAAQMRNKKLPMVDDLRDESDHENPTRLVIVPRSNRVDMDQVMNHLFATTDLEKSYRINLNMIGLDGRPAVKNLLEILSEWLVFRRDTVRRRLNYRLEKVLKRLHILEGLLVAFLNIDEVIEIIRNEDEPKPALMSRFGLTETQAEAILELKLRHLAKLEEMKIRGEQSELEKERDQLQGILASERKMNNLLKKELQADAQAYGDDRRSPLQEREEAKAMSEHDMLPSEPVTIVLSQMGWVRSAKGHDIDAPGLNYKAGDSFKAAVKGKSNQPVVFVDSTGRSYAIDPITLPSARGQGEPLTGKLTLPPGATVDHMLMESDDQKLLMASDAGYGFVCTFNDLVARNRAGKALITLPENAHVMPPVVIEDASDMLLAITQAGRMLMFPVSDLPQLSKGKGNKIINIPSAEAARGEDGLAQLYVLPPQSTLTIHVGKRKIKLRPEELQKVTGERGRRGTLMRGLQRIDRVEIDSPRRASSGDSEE

O=c1ccc2ncc(=O)n3c2n1C[C@H]3CN1CCC(NCc2cc3c(cn2)OCCC3)CC1 [Gepo, gepotidacin, reference compound]
20.5 µM: MIC (A. baumannii; Acinetobacter baumannii; Table S3; read-out: MIC (μM) A. baumannii) | MIC (K. pneumoniae; Klebsiella pneumoniae; Table S3; read-out: MIC (μM) K. pneumoniae) | MIC (P. aeruginosa RDK 184; Pseudomonas aeruginosa, RDK184; Table S3; read-out: MIC (μM) P. aeruginosa RDK 184)
2 µg/mL: MIC (E. faecalis RDK 057; Enterococcus faecalis, RDK057; read-out: MIC E. faecalis RDK 057)
2.56 µM: MIC (E. coli (ATCC 25922); Escherichia coli, ATCC25922; Table S3; read-out: MIC (μM) E. coli (ATCC 25922)) | MIC (VRE; Table S3, read-out: MIC (μM) VRE)
1 µg/mL: MIC (E. coli (ATCC 25922); Escherichia coli, ATCC25922; read-out: MIC E. coli (ATCC 25922)) | MIC (VRE; read-out: MIC VRE)
8 µg/mL: MIC (A. baumannii; Acinetobacter baumannii; read-out: MIC A. baumannii) | MIC (K. pneumoniae; Klebsiella pneumoniae; read-out: MIC K. pneumoniae) | MIC (P. aeruginosa RDK 184; Pseudomonas aeruginosa, RDK184; read-out: MIC P. aeruginosa RDK 184)
0.5 µg/mL: MIC (MRSA (QA-11.2); read-out: MIC MRSA (QA-11.2))
0.125 µg/mL: MIC (MRSA(QA-12.1); strain resistant to cefoxitin, gentamicin, kanamycin, rifampicin, streptomycin, sulfamethoxazole, tetracycline, read-out: MIC MRSA(QA-12.1))
5.12 µM: MIC (E. faecalis RDK 057; Enterococcus faecalis, RDK057; Table S3; read-out: MIC (μM) E. faecalis DRK 057)
0.161 µM: MIC (MRSA (QA-11.7); Table S3, read-out: MIC (μM) MRSA (QA-11.7))
0.32 µM: MIC (MRSA(QA-12.1); Table S3, read-out: MIC (μM) MRSA(QA-12.1)) | MIC (S. aureus (ATCC 29213); ATCC29213, Table S3, read-out: MIC (μM) S. aureus (ATCC 29213)) | MIC (E. coli D22; D22, Table S3, lpxC mutation, read-out: MIC (μM) E. coli D22)
0.016 µg/mL: MIC (E. coli N43 (CGSC# 5583); [2])
0.041 µM: MIC (E. coli N43 (CGSC# 5583); read-out: MIC (μM) E. coli N43)
0.063 µg/mL: MIC (MRSA (QA-11.7); strain resistant to cefoxitin, ciprofloxacin, clindamycin, erythromycin, tetracycline, thiamulin, trimethoprim, read-out: MIC MRSA (QA-11.7))
1.28 µM: MIC (MRSA (QA-11.2); Table S3, read-out: MIC (μM) MRSA (QA-11.2))

COc1ccc2nccc(OCC3CCC(NCc4ccc(N)cc4)CC3)c2n1 (stereo not drawn) [Compound 10, 4-(((4-(((6-methoxy-1,5-naphthyridin-4-yl)oxy)methyl)cyclohexyl)amino)methyl)aniline]
99 ± 1%: remaining activity at 100 µM (human topoisomerase IIα)
> 100 µM: IC50 (E. coli DNA gyrase) | IC50 (S. aureus DNA gyrase) | IC50 (S. aureus topoIV) | IC50 (E. coli topoIV)
> 50 µM: IC50 at 72 h ([1]; HUVEC cells (ATCC CRL-1730)) | IC50 at 72 h ([1]; HepG2 cells (ATCC HB-8065))
> 128 µg/mL: MIC (E. coli (ATCC 25922); [4]) | MIC (E. coli N43 (CGSC# 5583); [2]) | MIC (E. faecalis RDK 057; [7]) | MIC (A. baumannii; [9]) | MIC (K. pneumoniae; [11]) | MIC (S. aureus (ATCC 29213); [13]) | MIC (E. coli D22; D22, read-out: MIC E. coli D22) | MIC (P. aeruginosa RDK 184; [16]) | MIC (E. coli ESBL QA-11.3; [18])
> 328 µM: MIC (E. coli (ATCC 25922); [3]) | MIC (E. coli N43 (CGSC# 5583); [5]) | MIC (E. faecalis RDK 057; [6]) | MIC (A. baumannii; [8]) | MIC (K. pneumoniae; [10]) | MIC (S. aureus (ATCC 29213); [12]) | MIC (E. coli D22; [14]) | MIC (P. aeruginosa RDK 184; [15]) | MIC (E. coli ESBL QA-11.3; [17])

COc1ccc2nccc(OCC3CCC(NCc4ccc(N)cc4)CO3)c2n1 (stereo not drawn) [Compound 11, N-(4-Aminobenzyl)-6-(((6-methoxy-1,5-naphthyridin-4-yl)oxy)methyl)tetrahydro-2H-pyran-3-amine]
> 100 µM: IC50 (E. coli DNA gyrase) | IC50 (S. aureus DNA gyrase) | IC50 (S. aureus topoIV) | IC50 (E. coli topoIV)
100%: remaining activity at 100 µM (human topoisomerase IIα)
> 328 µM: MIC (E. coli (ATCC 25922); [3]) | MIC (E. coli N43 (CGSC# 5583); [5]) | MIC (E. faecalis RDK 057; [6]) | MIC (A. baumannii; [8]) | MIC (K. pneumoniae; [10]) | MIC (S. aureus (ATCC 29213); [12]) | MIC (E. coli D22; [14]) | MIC (P. aeruginosa RDK 184; [15]) | MIC (E. coli ESBL QA-11.3; [17])
> 50 µM: IC50 at 72 h ([1]; HUVEC cells (ATCC CRL-1730)) | IC50 at 72 h ([1]; HepG2 cells (ATCC HB-8065))
> 128 µg/mL: MIC (E. coli (ATCC 25922); [4]) | MIC (E. coli N43 (CGSC# 5583); [2]) | MIC (E. faecalis RDK 057; [7]) | MIC (A. baumannii; [9]) | MIC (K. pneumoniae; [11]) | MIC (S. aureus (ATCC 29213); [13]) | MIC (E. coli D22; D22, read-out: MIC E. coli D22) | MIC (P. aeruginosa RDK 184; [16]) | MIC (E. coli ESBL QA-11.3; [18])
